Literature values, collected in patent US20250325480A1, “Lipid Nanoparticle Compositions and Methods For Formulating Insoluble Drugs” (RESPIRERX PHARMACEUTICALS, INC., priority 2022, published 2025).

Key:
[1] = not given; remark: listed apart in the source

For `CCCCCc1cc(O)c2c(c1)OC(C)(C)[C@@H]1CCC(C)=C[C@@H]21` [Dronabinol, (−)-trans-Δ^9-tetrahydrocannabinnol], the “Metabolic breakdown upon first pass through the liver” value (as presently formulated) is listed as “approximately 80%”, the Half-life (in vivo) is listed as 2 to 3 h and the Adverse side effects ([1]; 10 mg dose, Marinol package insert) is listed as “unacceptable adverse side effects”. The OSA alleviating effects ([1]; 2.5 and 10 mg doses, first 4 hours of 8-hour test period) was “therapeutically equivalent OSA alleviating effects” and the “Therapeutic effects in OSA” value ([1]; second 4 hours of 8-hour test period) was “only the 10 mg dose produced therapeutic effects”.
